In PubChem BioAssay (NCI):
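Step 1: Grow cells in 96-well plates. Step 2: Expose to compound for 48 hours at 5 concentrations. Step 3: Interpolate endpoints linearly; if unreached, use highest concentration. Here, GI50 denotes the concentration required for 50% inhibition of growth. TGI is the concentration that stops growth completely.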

Assays:
Assay in all cases: NCI anticancer screen, dose series, 48 h
[1] = system: NCI-H23 lung
[2] = system: NCI-H460 lung
[3] = system: NCI-H522 lung
[4] = system: NCI/ADR-RES ovarian
[5] = system: OVCAR-3 ovarian
[6] = system: OVCAR-4 ovarian
[7] = system: OVCAR-5 ovarian
[8] = system: OVCAR-8 ovarian
[9] = system: PC-3 prostate
[10] = system: RPMI-8226 leukemia
[11] = system: RXF 393 renal
[12] = system: SF-268 CNS
[13] = system: SF-295 CNS
[14] = system: SF-539 CNS
[15] = system: SK-MEL-2 melanoma
[16] = system: SK-MEL-28 melanoma
[17] = system: SK-OV-3 ovarian
[18] = system: SN12C renal
[19] = system: SNB-19 CNS
[20] = system: SNB-75 CNS
[21] = system: SR leukemia
[22] = system: SW-620 colon
[23] = system: T-47D breast
[24] = system: TK-10 renal
[25] = system: U251 CNS
[26] = system: UACC-257 melanoma
[27] = system: UACC-62 melanoma
[28] = system: UO-31 renal

Which GI50 [1] does the source give for COC(=O)/C(=C\c1c(-c2ccccc2)[nH]c2ccccc12)S(C)(=O)=O here?
Its GI50 is 7.95 µM.

What about the TGI [1] of the same molecule?
Its TGI is 41.8 µM.

And the GI50 [2]?
The GI50 was 3.54 µM.

What about the TGI [2] of the same molecule?
The TGI was 14.2 µM.

What about the GI50 [3] of the same molecule?
Its GI50 is 3.06 µM.

And the TGI [3]?
The TGI was 14.5 µM.

What about the GI50 [4] of the same molecule?
Its GI50 is 3.28 µM.

And the TGI [4]?
The TGI was over 100 µM.

What about the GI50 [5] of the same molecule?
The GI50 was 1920 nM.

And the TGI [5]?
The TGI was 3.97 µM.

And the GI50 [6]?
The GI50 was 6.23 µM.

What about the TGI [6] of the same molecule?
Its TGI is over 100 µM.

And the GI50 [7]?
The GI50 was 19.6 µM.

And the TGI [7]?
The TGI was 49.8 µM.

And the GI50 [8]?
Its GI50 is 6.29 µM.

What about the TGI [8] of the same molecule?
The TGI was over 100 µM.

What about the GI50 [9] of the same molecule?
The GI50 was 4.16 µM.

And the TGI [9]?
Its TGI is over 100 µM.

And the GI50 [10]?
The GI50 was 6.15 µM.

What about the TGI [10] of the same molecule?
Its TGI is 96.4 µM.

And the GI50 [11]?
The GI50 was 7.23 µM.

What about the TGI [11] of the same molecule?
The TGI was 68.2 µM.

What about the GI50 [12] of the same molecule?
Its GI50 is 4.32 µM.

And the TGI [12]?
The TGI was 18.3 µM.

And the GI50 [13]?
Its GI50 is 3.13 µM.

And the TGI [13]?
Its TGI is 19.9 µM.

What about the GI50 [14] of the same molecule?
Its GI50 is 3.11 µM.

And the TGI [14]?
The TGI was 11.5 µM.

And the GI50 [15]?
The GI50 was 11.8 µM.

What about the TGI [15] of the same molecule?
The TGI was 28.4 µM.

And the GI50 [16]?
Its GI50 is 6.04 µM.

And the TGI [16]?
Its TGI is 21.9 µM.

What about the GI50 [17] of the same molecule?
Its GI50 is 12.1 µM.

And the TGI [17]?
Its TGI is 75.5 µM.

What about the GI50 [18] of the same molecule?
The GI50 was 3.14 µM.

What about the TGI [18] of the same molecule?
The TGI was 32 µM.

What about the GI50 [19] of the same molecule?
Its GI50 is 8.68 µM.

What about the TGI [19] of the same molecule?
Its TGI is over 100 µM.

And the GI50 [20]?
The GI50 was 2260 nM.

What about the TGI [20] of the same molecule?
Its TGI is 9.61 µM.

What about the GI50 [21] of the same molecule?
Its GI50 is 8.08 µM.

And the TGI [21]?
The TGI was over 100 µM.

What about the GI50 [22] of the same molecule?
Its GI50 is 2920 nM.

And the TGI [22]?
Its TGI is 15.9 µM.

What about the GI50 [23] of the same molecule?
Its GI50 is 2820 nM.

And the TGI [23]?
The TGI was 30.8 µM.

And the GI50 [24]?
Its GI50 is 7.71 µM.

What about the TGI [24] of the same molecule?
The TGI was over 100 µM.

What about the GI50 [25] of the same molecule?
The GI50 was 3.62 µM.

And the TGI [25]?
Its TGI is 18.3 µM.

What about the GI50 [26] of the same molecule?
Its GI50 is 11.2 µM.

What about the TGI [26] of the same molecule?
The TGI was 25.9 µM.

And the GI50 [27]?
The GI50 was 3.34 µM.

What about the TGI [27] of the same molecule?
The TGI was 17 µM.

And the GI50 [28]?
Its GI50 is 5.49 µM.

And the TGI [28]?
The TGI was 28.7 µM.
